Data as given in PubChem BioAssay AID248 (DTP/NCI, 2004).
Values joined by “and” are separate entries in the source; they are usually repeats but may differ in a detail not shown here. Identical values can stand only once. Inconclusive results and toxic doses are left out. Rule as the data show it: active = T/C of 150% or more; inactive = T/C below 125%.

Test system: L1210 leukemia ip in BDF1 mice, survival T/C
Test: NCI In Vivo Anticancer Drug Screen. Data for tumor model L1210 Leukemia (intraperitoneal) in B6D2F1 (BDF1) mice
Conditions: endpoint: mean survival time, higher = longer survival
Summary of the method: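 Mice bearing the transplanted tumor received compound or vehicle. Survival of the treated group was divided by that of the vehicle-treated control group to give the ratio.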

[1] = dose: 50.0 mg/kg/injection, schedule: Q01DX001 (ip), vehicle: Klucel (hydroxypropylcellulose) (HPC)
[2] = dose: 100.0 mg/kg/injection, schedule: Q04DX003 (ip), vehicle: saline with Tween-80
[3] = dose: 200.0 mg/kg/injection, schedule: Q04DX003 (ip), vehicle: saline with Tween-80
[4] = dose: 400.0 mg/kg/injection, schedule: Q04DX003 (ip), vehicle: saline with Tween-80
[5] = dose: 100.0 mg/kg/injection, schedule: Q04DX002 (ip), vehicle: Klucel (hydroxypropylcellulose) (HPC)
[6] = dose: 200.0 mg/kg/injection, schedule: Q04DX002 (ip), vehicle: Klucel (hydroxypropylcellulose) (HPC)
[7] = dose: 400.0 mg/kg/injection, schedule: Q04DX002 (ip), vehicle: Klucel (hydroxypropylcellulose) (HPC)
[8] = dose: 50.0 mg/kg/injection, schedule: Q04DX002 (ip), vehicle: saline with Tween-80
[9] = dose: 100.0 mg/kg/injection, schedule: Q04DX002 (ip), vehicle: saline with Tween-80
[10] = dose: 200.0 mg/kg/injection, schedule: Q04DX002 (ip), vehicle: saline with Tween-80
[11] = dose: 400.0 mg/kg/injection, schedule: Q04DX002 (ip), vehicle: saline with Tween-80
[12] = dose: 25.0 mg/kg/injection, schedule: Q01DX009 (ip), vehicle: saline with Tween-80
[13] = dose: 50.0 mg/kg/injection, schedule: Q01DX009 (ip), vehicle: saline with Tween-80
[14] = dose: 100.0 mg/kg/injection, schedule: Q01DX009 (ip), vehicle: saline with Tween-80
[15] = dose: 25.0 mg/kg/injection, schedule: Q04DX003 (ip), vehicle: Klucel (hydroxypropylcellulose) (HPC)
[16] = dose: 50.0 mg/kg/injection, schedule: Q04DX003 (ip), vehicle: Klucel (hydroxypropylcellulose) (HPC)
[17] = dose: 100.0 mg/kg/injection, schedule: Q04DX003 (ip), vehicle: Klucel (hydroxypropylcellulose) (HPC)
[18] = dose: 12.5 mg/kg/injection, schedule: Q04DX002 (ip), vehicle: Klucel (hydroxypropylcellulose) (HPC)
[19] = dose: 25.0 mg/kg/injection, schedule: Q04DX002 (ip), vehicle: Klucel (hydroxypropylcellulose) (HPC)
[20] = dose: 200.0 mg/kg/injection, schedule: Q04DX003 (ip), vehicle: Klucel (hydroxypropylcellulose) (HPC)
[21] = dose: 100.0 mg/kg/injection, schedule: Q01DX001 (ip), vehicle: saline
[22] = dose: 200.0 mg/kg/injection, schedule: Q01DX009 (ip), vehicle: saline with Tween-80

Measured: T/C

NCCCN
inactive: dose: 100.0 mg/kg/injection, schedule: Q04DX003 (ip), vehicle: saline 97 % of control | dose: 200.0 mg/kg/injection, schedule: Q04DX003 (ip), vehicle: saline 98 % of control | dose: 400.0 mg/kg/injection, schedule: Q04DX003 (ip), vehicle: saline 98 % of control

CN1CCN(c2nc3ccccc3n3nnnc23)CC1
inactive: dose: 37.5 mg/kg/injection, schedule: Q04DX003 (ip), vehicle: saline 104 % of control | dose: 75.0 mg/kg/injection, schedule: Q04DX003 (ip), vehicle: saline 107 % of control

CCCCCCCCCCCCCC(=O)OC1CCC2(C)C(=CCC3C2CCC2(C)C(C(C)CCCC(C)C)CCC32)C1 (configuration not stated)
inactive: [1] 96 % of control | dose: 100.0 mg/kg/injection, schedule: Q01DX001 (ip), vehicle: Klucel (hydroxypropylcellulose) (HPC) 89 % of control | dose: 200.0 mg/kg/injection, schedule: Q01DX001 (ip), vehicle: Klucel (hydroxypropylcellulose) (HPC) 87 % of control and 89 % of control | dose: 400.0 mg/kg/injection, schedule: Q01DX001 (ip), vehicle: Klucel (hydroxypropylcellulose) (HPC) 87 % of control

CCC(C)NC(=O)/C=C/C(=O)NC(C)CC (configuration not stated)
inactive: [2] 91 % of control | [3] 100 % of control | [4] 100 % of control

Cc1cc(OCC(N)=O)ccc1Cl
inactive: [5] 103 % of control | [6] 92 % of control | [7] 98 % of control

C1CC2CC1CC1C3CC4CCC(C4)C3OC21 (configuration not stated)
inactive: [8] 98 % of control | [9] 102 % of control | [10] 91 % of control | [11] 95 % of control

CCCNC(=O)Oc1cccc(NC(=O)CC)c1
inactive: [12] 100 % of control | [13] 100 % of control | [14] 92 % of control

O=[As](O)(O)Cc1cccc(F)c1
inactive: [15] 96 % of control | [16] 101 % of control | [17] 87 % of control

Cc1cc(NC(C)C)c(C)cc1NC(C)C
inactive: [18] 93 % of control | [19] 96 % of control

O=C(COc1cccc(Cl)c1)Nc1cccc(CN2C(=O)c3ccccc3C2=O)c1
inactive: [16] 96 % of control | [17] 98 % of control | [20] 95 % of control

CC(C)c1ccc(/C=N/NC(=O)c2ccncc2)cc1
inactive: dose: 100.0 mg/kg/injection, schedule: Q01DX009 (ip), vehicle: saline 100 % of control

C[n+]1c2ccccc2c(-c2c3ccccc3[n+](C)c3ccccc23)c2ccccc21
inactive: dose: 12.5 mg/kg/injection, schedule: Q01DX001 (ip), vehicle: Klucel (hydroxypropylcellulose) (HPC) 102 % of control | dose: 25.0 mg/kg/injection, schedule: Q01DX001 (ip), vehicle: Klucel (hydroxypropylcellulose) (HPC) 98 % of control | [1] 98 % of control

O=[N+]([O-])c1ccn(O)c(=NC2CCCCC2)c1
inactive: [21] 98 % of control | dose: 200.0 mg/kg/injection, schedule: Q01DX001 (ip), vehicle: saline 93 % of control | dose: 400.0 mg/kg/injection, schedule: Q01DX001 (ip), vehicle: saline 100 % of control

CN(C)C1(Cc2ccccc2)c2ccccc2-c2ccc(Br)cc21 (configuration not stated)
inactive: dose: 6.25 mg/kg/injection, schedule: Q01DX009 (ip), vehicle: saline with Tween-80 92 % of control | dose: 12.5 mg/kg/injection, schedule: Q01DX009 (ip), vehicle: saline with Tween-80 89 % of control | [12] 89 % of control | [14] 88 % of control

Clc1nc(Cl)c(Cl)c(C(Cl)(Cl)Cl)n1
inactive: [12] 101 % of control | [13] 92 % of control | [14] 87 % of control | [22] 86 % of control

C#CCOC(=O)c1ccc(C(=O)OCC#C)cc1
inactive: dose: 100.0 mg/kg/injection, schedule: Q01DX009 (ip), vehicle: saline sonified 106 % of control | [17] 100 % of control | dose: 200.0 mg/kg/injection, schedule: Q01DX009 (ip), vehicle: saline sonified 96 % of control | [20] 106 % of control | dose: 400.0 mg/kg/injection, schedule: Q04DX003 (ip), vehicle: Klucel (hydroxypropylcellulose) (HPC) 90 % of control

CC(=O)N1C(=O)NC(=O)C1(C)c1ccc(Cl)s1 (configuration not stated)
inactive: [14] 96 % of control | [2] 100 % of control | [22] 103 % of control | [3] 97 % of control | dose: 400.0 mg/kg/injection, schedule: Q01DX009 (ip), vehicle: saline with Tween-80 91 % of control | [4] 88 % of control

O=[N+]([O-])c1nncs1
inactive: dose: 6.25 mg/kg/injection, schedule: Q04DX003 (ip), vehicle: saline 104 % of control | dose: 12.5 mg/kg/injection, schedule: Q04DX003 (ip), vehicle: saline 98 % of control | dose: 25.0 mg/kg/injection, schedule: Q04DX003 (ip), vehicle: saline 101 % of control

NC(CSS(=O)(=O)O)=NCCc1c[nH]c(=S)[nH]1
inactive: [18] 107 % of control | [19] 91 % of control

Cc1cccc(C)c1N=C=S
inactive: dose: 25.0 mg/kg/injection, schedule: Q04DX003 (ip), vehicle: saline with Tween-80 100 % of control | dose: 50.0 mg/kg/injection, schedule: Q04DX003 (ip), vehicle: saline with Tween-80 96 % of control | [2] 98 % of control

COC1OC(CCl)C(OS(C)(=O)=O)C(OC(=O)c2ccccc2)C1OC(=O)c1ccccc1 (configuration not stated)
inactive: [19] 102 % of control | dose: 50.0 mg/kg/injection, schedule: Q04DX002 (ip), vehicle: Klucel (hydroxypropylcellulose) (HPC) 97 % of control | [5] 102 % of control

ClCc1ccc(CCl)c(Cl)c1
inactive: [15] 86 % of control | [16] 97 % of control | [17] 94 % of control

CC(Cl)(CCl)C(=O)O (configuration not stated)
inactive: dose: 50.0 mg/kg/injection, schedule: Q01DX001 (ip), vehicle: saline 95 % of control | [21] 103 % of control

CCSC(=O)N1c2ccc(C)cc2C=CC1C#N (configuration not stated)
inactive: [14] 93 % of control | [2] 90 % of control | [22] 104 % of control | [3] 89 % of control | [4] 95 % of control

COc1ccc(OC)c(/C=C(/C)[N+](=O)[O-])c1
inactive: [13] 109 % of control | [14] 109 % of control | [17] 97 % of control | [22] 109 % of control | [20] 108 % of control

Cc1nc(C(N)=O)c2nc3c4ccccc4c4ccccc4c3nn12
inactive: dose: 25.0 mg/kg/injection, schedule: Q04DX002 (ip), vehicle: saline with Tween-80 94 % of control | [8] 91 % of control | [9] 87 % of control | [10] 89 % of control | [11] 92 % of control

COc1cc(/C=N/NC(=O)c2ccccc2N)ccc1O
inactive: [5] 98 % of control | [6] 106 % of control | [7] 109 % of control

CCCC(/C=N/Nc1ccc([N+](=O)[O-])cc1[N+](=O)[O-])=C\c1ccccc1
inactive: dose: 100.0 mg/kg/injection, schedule: Q01DX001 (ip), vehicle: saline with Tween-80 88 % of control | dose: 200.0 mg/kg/injection, schedule: Q01DX001 (ip), vehicle: saline with Tween-80 88 % of control
